Source: patent US6555499B1, “Herbicide agent” (Syngenta Crop Protection, Inc., priority 1999, dated 2003)

Experiments:
Apera = experiment: Post-emergence test, Example B1: Apera; assay type: in vivo; conditions: greenhouse, herbicide 25 g/ha, where combined cloquintocet-mexyl 6.25 g/ha, MERGE 1% by weight of spray mixture, evaluated after 2 to 4 weeks, 100%=complete destruction
Excerpt: (§1) A standard soil is used as cultivation substrate.
(§2) The rate of application of herbicide is in each case 25 g/ha; the rate of application of cloquintocet-mexyl is 6.25 g/ha. As oil additive, MERGE® is used in a concentration of 1% by weight of the spray mixture.

Alopecurus = experiment: Post-emergence test, Example B1: Alopecurus; assay type: in vivo; conditions: greenhouse, herbicide 25 g/ha, where combined cloquintocet-mexyl 6.25 g/ha, MERGE 1% by weight of spray mixture, evaluated after 2 to 4 weeks, 100%=complete destruction
Excerpt: as §1, §2

Avena = experiment: Post-emergence test, Example B1: Avena; assay type: in vivo; conditions: greenhouse, herbicide 25 g/ha, where combined cloquintocet-mexyl 6.25 g/ha, MERGE 1% by weight of spray mixture, evaluated after 2 to 4 weeks, 100%=complete destruction
Excerpt: as §1, §2

weeds = experiment: Post-emergence test, Example B1: weeds overall, in words; assay type: in vivo, Apera, Alopecurus, Avena; conditions: herbicide 25 g/ha, where combined cloquintocet-mexyl 6.25 g/ha, MERGE 1%
Excerpt: as §1, §2

Row | Compound | Herbicidal action on Apera (Apera) | Herbicidal action on Alopecurus (Alopecurus) | Herbicidal action on Avena (Avena) | Herbicidal action on the weeds (in words) (weeds)
1 | CCc1cc(C)cc(CC)c1C1C(=O)N2CCOCCN2C1=O [compound no. 1.007] | 60% | 10% | 10% | only slight to moderate herbicidal action
2 | CCc1cc(C)cc(CC)c1-c1c(OC(=O)C(C)(C)C)n2n(c1=O)CCOCC2 [compound no. 1.008] | 25% | 20% | 20% | only slight to moderate herbicidal action
